Key:
hGR [1] = assay: hGR functional assay: CAT activity in CV-1 cells cotransfected with pRShGR alpha (or mutant) and pMTVCAT; type: cell-based, human; conditions: percentage of wild-type hGR activity; CV-1 cells cultured 2 days with 10 nM DEX
Text: The assay system and strategy used to study the expression of functional hGR from the cloned cDNA (See Experimental Section I) is shown in FIG. 11. In these experiments, a glucocorticoid-responsive promoter/enhancer element linked to a reporter gene was introduced into a receptor-negative cell. […] For our assay, we chose to use the MTV LTR fused to the sequence coding for chloramphenicol acetyltransferase (CAT) (EC2.3.1.28). […] Cotransfection of pMTVCAT (or pGMCAT) with a receptor expression plasmid provides functional receptors that allow induction of CAT activity upon treatment of the transfected cells with glucocorticoid hormone. In addition, biochemical studies such as steroid binding activity and Western blot analysis of the expressed receptors can be performed simultaneously.
(§1) The cells are then cultured in the presence or absence of hormone. CV-1 cells were used to monitor induction of CAT activity, and COS cells were used to measure steroid-binding capacity and the expression of hGR protein.
CAT assays were performed as indicated in Experimental Procedures (See Section II. F.). C, chloramphenicol; AC, 3-acetylchloramphenicol.
The levels of CAT activity were plotted as percentages of the maximal response observe in a particular experiment.
Each plasmid preparation used for transfection was purified using two consecutive CsCl-EtBr equilibrium gradients. […]

hGR [2] = assay: Steroid binding assay ([^3H]DEX) in cytosol of COS cells transfected with hGR or mutants; parameters: species or system human; conditions: steroid-binding capacity as percentage of wild-type hGR
Description: as §1
COS cells were lysed in hypotonic buffer containing 10 mM Tris-HCl (pH 7.5), 10 mM NaCl, 1 mM EDTA, 5 micrograms/ml antipain, 5 micrograms/ml leupeptin, and 0.5 mM PMSF by Dounce homogenization and centrifuged 10 min. at 15,000×g to yield the cytosolic fraction. Incubations were performed in hypotonic buffer adjusted to 100 mM NaCl and contained 100 micrograms of protein from the cytosolic fraction and 2×10^−8[^3H]DEX (Amersham, 95 Ci/mmol) in total volume of 200 microliters. Nonspecific binding was measured by the addition of 2×10^−6 unlabeled DEX. Reactions were carried out at 0° C. for 2 hr., followed by a 5 min. incubation with 20 microliters of 50% dextran-coated charcoal (10:1 activated charcoal:dextran) and centrifugation at 15,000×g for 2 min. at 4° C. Supernatants were counted by liquid scintillation methods in a Beckman LS-7800 liquid scintillation spectrophotometer. Each assay usually gave 2500-3000 cpm [^3H] labeled steroid; unlabeled DEX competed for 70% of this binding.

[3] = system: rat GH 5′-flanking sequences in rat pituitary GC2 cells; assay: T3 responsiveness of rat GH 5′-flanking sequence-CAT gene fusions transfected into GC2 cells; type: cell-based; conditions: for stimulation of CAT activity: GH −235 to −45 fused to tk promoter
Text: […]. To overcome this problem, a rat prolactin enhancer element^11 was fused proximal to fragments of the rat GH gene containing 181 and 110 bp of 5′ flanking information. […].
To assay 3′ deletions, fragments of the rat Gh gene were fused to the herpes simplex virus thymidine kinase (HSV tk) promoter. A fragment of the Gh gene extending from position −235 to position −45 from the CAP site produced 2.5-and 2.3-fold stimulations of CAT activity when fused to the tk promoter in native and inverse orientation, respectively (FIG. 57). […]. […].
Thyroid hormone responsiveness of various gene fusions containing rat GH 5′-flanking sequences. FIG. 56, Responsiveness of 5′ and 3′ deletions of the rat GH gene. 5′-deleted fragments of the rat GH gene were fused to the CAT gene in a pSV2CAT-based vector^18, in which the SV40 origin of replication and promoter were removed. […]. The illustrated 3′-deleted fragments were fused to a tk promoter fragment, extending from position −197 to position +54 and placed proximal to the CAT gene in the same vector. […]. Error limits represent the standard error of the mean. Each construction was assayed two to five times. An represents SV40 polyadenylation sites. FIG. 58, Messenger RNA transcription initiation site analysis. The diagram indicates the […] primer complimentary to nucleotides 67 to 89 of the CAT coding sequence used to determine the CAP site of transcripts of plasmids containing the tk promoter. GC cells were transfected with test plasmids and hormone treated as described for the experiments presented in panels a and b. Primer extension analysis was performed on 50 micrograms total RNA. Lanes A and B represent the extension product from cells transfected with a plasmid containing the GH fragment extending from positions 235 to 45 from the CAP site fused to the tk promoter. Lanes C and D represent the extension product from cells transfected with a plasmid containing the tk promoter alone. No extension products were observed. […].
Fusions containing the rat prolactin enhancer were made by excising this fragment (corresponding to rat prolactin sequence nucleotide positions 1831-1530) from plasmid pPSS^11 and inserting it in reverse orientation proximal to the 5′ deletions of the growth hormone element. Fusions containing the HSV tk promoter were made by excising fragments of the GH enhancer from the plasmid GPO (ref. 11) and inserting them into the BamHI and SalI sites of a pSV2CAT-based expression vectors proximal to the tk promoter at positions −197 to +54. Alternatively, the GH enhancer was placed proximal to the promoter at positions −107 to +54 in a pUC8-based vector^20 by insertion into the BamHI and SalI polylinker sites. Site-directed mutagenesis of the GH enhancer element was performed by inserting the fragment from 235-45 bp from the CAP site into the BamHI and SalI sites of M13 mp18. A 21-base oligonucleotide was synthesized which corresponded to antisense GH nucleotides −188 to −157, in which nucleotides −177 to −166 were deleted and replaced by an A nucleotide. This oligonucleotide was used to delete bases −177 to −166 in the GH enhancer using the procedure of Kunkel^21. CAT activity was determined by radioassay of methylated chloramphenicol derivatives after thin layer chromatography^19. Primer extension was by the method of Elsholtz, et al.^12

[4] = system: rat GH 5′-flanking sequences in rat pituitary GC2 cells; assay: as above; type: cell-based; conditions: 5′ deletion to −107 with rat prolactin enhancer

Row | Compound | CAT Activity (%) (hGR [1]) | DEX Binding (%) (hGR [2]) | regulation of CAT expression by T3 ([3]; 5′ deletion to −235 of rat GH gene fused to CAT) | induction of CAT expression by T3 ([3]; 5′-deleted fragment to −181 with rat prolactin enhancer) | increase of correctly initiated CAT mRNA (primer extension) ([3]; 235-45 bp GH fragment fused to tk promoter, 10^−9M T3) | stimulation of CAT activity ([3]; inverse orientation) | stimulation of CAT activity ([3]; native orientation) | stimulation of CAT expression ([3]; construction G29TK) | stimulation of CAT expression (in words) ([3]; construction G293TK, three tandem repeats) | effect on CAT expression (in words) ([3]; mutant G delta 166/177 fused to tk promoter) | stimulation of CAT expression (in words) ([3]; wild-type GH enhancer fused to tk promoter) | T3 regulation of CAT expression (in words) [4]
1 | hGR alpha: wild-type human glucocorticoid receptor, alpha form, 777 amino acids | 100% | 100% |  |  |  |  |  |  |  |  |  | 
2 | N[C@@H](Cc1cc(I)c(Oc2ccc(O)c(I)c2)c(I)c1)C(=O)O [T3, 3,5,3′-triiodo-L-thyronine] |  |  | 4.6 fold | 2.6 fold | about 4 fold | 2.3 fold | 2.5 fold | 2.9 fold | five-fold | no effect | ninefold | abolished T3 regulation

From US6806359B1, “Hormone receptor compositions and methods” (The Salk Institute for Biological Studies, priority 1986, dated 2004)
